The structures appear in SMILES notation. Active and inactive are the calls of the source. The calls are words filed in the database; no cut-off is given here.

Data set [1] in a line: Cmax in human NCI-H2228 cell xenografted NOD.CB17-Prkdcscid/J mouse tumor at 10 mg/kg/day for 5 days by HPLC-MS analysis. Format: ADME, organism-based, Neoplasm. The settings on record: route po, time 5 day. For orientation: Xenograft models place foreign cells or tissue in a host animal.
The nature of data set [2]: Tmax in human NCI-H2228 cell xenografted NOD.CB17-Prkdcscid/J mouse plasma at 1 mg/kg/day for 5 days by HPLC-MS analysis. Format: ADME, organism-based. The conditions noted are these: route po, time 5 day.
Data set [3] concerns NCI-H2228. Put plainly: Antitumor activity against human NCI-H2228 cells xenografted in NOD.CB17-Prkdcscid/J mouse assessed as tumor growth inhibition at 3 mg/kg, po administered once daily for 2 weeks relative to control. Format: functional. The conditions noted are these: NCI-H2228, 336 h, read-out: TGI.
The nature of data set [4]: Selectivity ratio of IC50 for inhibition of EML4-ALK L1196M mutant (unknown origin) expressed in mouse 3T3 cells assessed as growth inhibition to IC50 for Inhibition of EML4-ALK (unknown origin) expressed in mouse 3T3 cells assessed as growth inhibition. The arrangement: species or system Homo sapiens. The conditions noted are these: condition non-small cell lung carcinoma.

In data set [5] the target is Tyrosine-protein kinase Lck (Homo sapiens, UniProt P06239).
For data set [6], the system named is NCI-H2228. As to the kind of experiment: Antitumor activity against human NCI-H2228 cells xenografted in NOD.CB17-Prkdcscid/J mouse assessed as tumor regression at 30 mg/kg, po administered once daily for 2 weeks relative to control. Format: functional.
The nature of data set [7]: Toxicity in human NCI-H2228 cell xenografted NOD.CB17-Prkdcscid/J mouse assessed as change in body weight at 100 mg/kg, po administered twice daily for 14 days. The class given is organism-based. The conditions noted are these: in vivo, 336 h, time 14 day.
Data set [8] has as its target High affinity nerve growth factor receptor (Homo sapiens, UniProt P04629).
The target of the next data set is EML4-ALK (Homo sapiens, UniProt Q9UM73, L1196M). Format: cell-based, BaF3.
The test system of data set [9] is NCI-H2228. Put plainly: Antitumor activity against human NCI-H2228 cells xenografted in NOD.CB17-Prkdcscid/J mouse assessed as tumor regression at 10 mg/kg, po administered once daily for 2 weeks relative to control. Format: functional.
A short description of data set [10]: Selectivity ratio of IC50 for EML4-ALK L1196M mutant (unknown origin) transformed in mouse BaF3 cells to IC50 for EML4-ALK (unknown origin) transformed in mouse BaF3 cells. Further details: species or system Homo sapiens. The conditions noted are these: condition non-small cell lung carcinoma.
Data set [11] can be described thus: Ratio of drug level in tumor to plasma of hEML4-ALK transgenic C57BL/6J mouse at 10 to 100 mg/kg, po administered daily for 10 days and measured 24 hrs post-last dose. Format: ADME, organism-based. The settings on record: dose 10-100 mg/kg, time 11 day.
In data set [12] the target is Proto-oncogene tyrosine-protein kinase ROS (Homo sapiens, UniProt P08922).
The nature of data set [13]: Cmax in human NCI-H2228 cell xenografted NOD.CB17-Prkdcscid/J mouse tumor at 3 mg/kg/day for 5 days by HPLC-MS analysis. Format: ADME, organism-based, Neoplasm. The conditions noted are these: route po, time 5 day.
A short description of data set [14]: AUC (0 to 24 hrs) in human NCI-H2228 cell xenografted NOD.CB17-Prkdcscid/J mouse tumor at 1 mg/kg/day for 5 days by HPLC-MS analysis. Format: ADME, organism-based, Neoplasm. The settings on record: in vivo, po, 120 h, time 5 day.
Data set [15] has as its target Tyrosine-protein kinase receptor TYRO3 (Homo sapiens, UniProt Q06418).
A short description of data set [16]: Ratio of Cmax in human NCI-H2228 cell xenografted NOD.CB17-Prkdcscid/J mouse tumor to plasma at 10 mg/kg/day for 5 days by HPLC-MS analysis. Format: ADME, organism-based. The conditions noted are these: tumor and plasma, route po, time 5 day.
The next data set relates to NCI-H2228-Luc. The settings on record: dose 30 mg/kg; route po; time 90 day.
The target in data set [17] is ALK tyrosine kinase receptor (Homo sapiens, UniProt Q9UM73). Put plainly: Inhibition of ALK in human NCI-H2228 cells assessed as reduction in STAT3 phosphorylation by measuring phosphorylated STAT3 level at 10 nmol/L measured after 4 hrs by Western blot analysis relative to control. Format: cell-based. Further details: scale not given: the % may be the effect or the level left.

Data set [18] has as its target Macrophage-stimulating protein receptor (Homo sapiens, UniProt Q04912).
The subject of data set [19] is NCI-H2228. Put plainly: Potentiation of paclitaxel-induced antitumor activity against human NCI-H2228 cells xenografted in NOD.CB17-Prkdcscid/J mouse assessed as increase in tumor regression at 10 mg/kg, po administered once daily for 5 days. The class given is functional, organism-based. The conditions noted are these: time 5.0 day.
The nature of the next data set: in vivo. The conditions noted are these: NOD.CB17-Prkdcscid/J, mouse, tumour, po, 1 mg/kg.

Chain of High affinity nerve growth factor receptor (P04629 whole entry): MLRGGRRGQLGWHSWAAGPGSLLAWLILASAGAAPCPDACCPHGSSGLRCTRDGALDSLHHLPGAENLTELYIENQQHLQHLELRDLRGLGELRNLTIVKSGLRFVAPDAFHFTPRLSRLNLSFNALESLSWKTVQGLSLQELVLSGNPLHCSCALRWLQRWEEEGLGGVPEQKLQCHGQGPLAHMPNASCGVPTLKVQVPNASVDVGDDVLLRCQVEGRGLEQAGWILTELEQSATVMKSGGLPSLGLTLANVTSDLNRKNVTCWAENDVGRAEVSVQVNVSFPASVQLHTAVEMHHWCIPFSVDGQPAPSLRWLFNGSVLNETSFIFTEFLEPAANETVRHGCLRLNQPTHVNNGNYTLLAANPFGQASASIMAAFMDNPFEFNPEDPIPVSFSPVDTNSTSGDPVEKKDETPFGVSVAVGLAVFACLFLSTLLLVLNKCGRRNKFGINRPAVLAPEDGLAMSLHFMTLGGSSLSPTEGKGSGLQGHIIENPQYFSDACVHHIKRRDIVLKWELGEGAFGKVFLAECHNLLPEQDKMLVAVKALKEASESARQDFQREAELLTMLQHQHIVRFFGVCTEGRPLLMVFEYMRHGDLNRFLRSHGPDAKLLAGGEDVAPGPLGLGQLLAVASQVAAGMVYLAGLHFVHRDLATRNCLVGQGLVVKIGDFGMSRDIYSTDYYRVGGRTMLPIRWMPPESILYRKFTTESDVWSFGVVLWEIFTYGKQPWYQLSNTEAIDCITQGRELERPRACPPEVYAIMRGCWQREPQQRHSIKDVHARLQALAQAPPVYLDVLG
Chain of EML4-ALK (Q9UM73 19-1620 L1196M limits assumed): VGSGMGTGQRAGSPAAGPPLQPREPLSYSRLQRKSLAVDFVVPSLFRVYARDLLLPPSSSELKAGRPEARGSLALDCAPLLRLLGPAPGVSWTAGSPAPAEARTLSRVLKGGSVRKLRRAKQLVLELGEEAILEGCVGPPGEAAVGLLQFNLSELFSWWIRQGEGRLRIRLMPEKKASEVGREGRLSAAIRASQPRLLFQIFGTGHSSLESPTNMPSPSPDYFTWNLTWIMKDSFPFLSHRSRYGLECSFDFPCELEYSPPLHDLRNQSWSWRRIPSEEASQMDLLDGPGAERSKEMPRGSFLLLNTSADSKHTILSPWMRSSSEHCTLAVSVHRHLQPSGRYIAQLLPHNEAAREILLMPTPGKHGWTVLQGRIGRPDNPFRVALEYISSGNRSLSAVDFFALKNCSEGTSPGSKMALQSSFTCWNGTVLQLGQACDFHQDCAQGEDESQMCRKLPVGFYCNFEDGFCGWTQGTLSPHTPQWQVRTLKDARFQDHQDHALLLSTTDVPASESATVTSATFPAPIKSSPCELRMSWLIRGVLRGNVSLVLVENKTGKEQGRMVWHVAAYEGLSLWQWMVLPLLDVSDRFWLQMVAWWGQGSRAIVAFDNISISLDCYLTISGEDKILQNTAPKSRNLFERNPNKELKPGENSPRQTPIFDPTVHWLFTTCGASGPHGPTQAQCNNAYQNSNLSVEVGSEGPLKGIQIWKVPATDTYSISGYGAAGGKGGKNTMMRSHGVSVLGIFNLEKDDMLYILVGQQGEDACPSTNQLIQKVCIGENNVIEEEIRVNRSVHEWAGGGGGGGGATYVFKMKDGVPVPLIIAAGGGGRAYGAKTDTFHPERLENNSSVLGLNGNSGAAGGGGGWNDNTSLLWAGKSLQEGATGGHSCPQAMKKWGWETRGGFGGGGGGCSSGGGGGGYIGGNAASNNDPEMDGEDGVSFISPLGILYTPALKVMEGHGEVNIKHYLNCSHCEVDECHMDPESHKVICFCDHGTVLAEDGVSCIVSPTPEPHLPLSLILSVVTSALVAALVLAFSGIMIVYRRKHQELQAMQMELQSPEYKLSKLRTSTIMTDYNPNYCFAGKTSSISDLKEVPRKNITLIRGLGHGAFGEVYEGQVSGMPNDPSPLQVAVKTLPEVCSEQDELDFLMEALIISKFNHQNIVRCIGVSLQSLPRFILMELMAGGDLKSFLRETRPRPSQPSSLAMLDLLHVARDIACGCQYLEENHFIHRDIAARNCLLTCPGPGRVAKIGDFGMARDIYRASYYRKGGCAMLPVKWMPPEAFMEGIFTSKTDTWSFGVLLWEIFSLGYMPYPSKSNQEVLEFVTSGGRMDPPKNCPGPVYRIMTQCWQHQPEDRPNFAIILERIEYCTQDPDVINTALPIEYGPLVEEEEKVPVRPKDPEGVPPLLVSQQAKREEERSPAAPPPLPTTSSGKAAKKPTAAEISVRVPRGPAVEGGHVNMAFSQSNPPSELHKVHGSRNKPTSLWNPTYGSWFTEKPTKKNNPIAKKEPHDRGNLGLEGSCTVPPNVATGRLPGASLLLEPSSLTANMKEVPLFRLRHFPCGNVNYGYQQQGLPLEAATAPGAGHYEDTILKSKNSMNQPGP
Chain of Tyrosine-protein kinase receptor TYRO3 (Q06418 whole entry): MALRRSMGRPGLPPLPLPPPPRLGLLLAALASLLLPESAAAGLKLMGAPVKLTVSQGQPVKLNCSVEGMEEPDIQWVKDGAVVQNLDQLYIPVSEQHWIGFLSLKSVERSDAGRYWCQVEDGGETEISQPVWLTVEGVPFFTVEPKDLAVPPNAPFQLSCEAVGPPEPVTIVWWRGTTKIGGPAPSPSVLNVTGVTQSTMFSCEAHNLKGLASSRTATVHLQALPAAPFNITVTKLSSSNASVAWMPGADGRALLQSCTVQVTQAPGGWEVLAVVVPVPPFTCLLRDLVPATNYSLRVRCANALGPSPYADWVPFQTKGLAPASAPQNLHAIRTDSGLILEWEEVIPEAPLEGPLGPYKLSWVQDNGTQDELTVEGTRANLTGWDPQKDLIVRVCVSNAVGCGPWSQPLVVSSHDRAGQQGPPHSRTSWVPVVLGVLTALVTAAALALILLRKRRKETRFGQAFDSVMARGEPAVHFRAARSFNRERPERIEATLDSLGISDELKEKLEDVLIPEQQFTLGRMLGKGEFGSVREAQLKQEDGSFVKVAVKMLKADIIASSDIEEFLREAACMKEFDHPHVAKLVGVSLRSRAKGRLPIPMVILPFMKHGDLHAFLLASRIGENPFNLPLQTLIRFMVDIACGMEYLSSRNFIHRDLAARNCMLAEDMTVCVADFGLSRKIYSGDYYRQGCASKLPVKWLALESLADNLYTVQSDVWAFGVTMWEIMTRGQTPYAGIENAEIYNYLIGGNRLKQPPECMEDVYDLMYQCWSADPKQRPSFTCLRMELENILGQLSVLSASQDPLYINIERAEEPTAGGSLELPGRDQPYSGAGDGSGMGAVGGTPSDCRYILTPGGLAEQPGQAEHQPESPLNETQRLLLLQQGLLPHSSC
Chain of Tyrosine-protein kinase Lck (P06239 whole entry): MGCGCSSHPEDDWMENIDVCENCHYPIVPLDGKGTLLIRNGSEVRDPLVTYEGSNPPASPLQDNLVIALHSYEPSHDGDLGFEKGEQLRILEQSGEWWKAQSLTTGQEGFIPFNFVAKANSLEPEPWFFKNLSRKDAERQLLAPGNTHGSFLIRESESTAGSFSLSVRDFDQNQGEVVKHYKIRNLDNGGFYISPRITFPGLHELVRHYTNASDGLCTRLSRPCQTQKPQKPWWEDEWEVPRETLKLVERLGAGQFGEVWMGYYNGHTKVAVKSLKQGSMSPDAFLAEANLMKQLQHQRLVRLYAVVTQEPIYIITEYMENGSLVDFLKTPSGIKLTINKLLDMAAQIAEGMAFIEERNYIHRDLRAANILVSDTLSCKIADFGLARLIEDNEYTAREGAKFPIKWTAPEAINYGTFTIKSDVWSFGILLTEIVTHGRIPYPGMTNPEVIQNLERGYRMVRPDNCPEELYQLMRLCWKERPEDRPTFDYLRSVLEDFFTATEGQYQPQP
Chain of ALK tyrosine kinase receptor (Q9UM73 19-1620 limits assumed): as the sequence (Q9UM73 19-1620 L1196M limits assumed) above, with M1178L counted along it

In general, Cmax refers to the peak of the concentration-time curve. In general, Tmax refers to the time from dosing to the highest level. By IC50 is commonly meant the midpoint of a concentration-inhibition curve. For `COc1cc(N2CCC(N3CCN(C)CC3)CC2)ccc1Nc1ncnc(Nc2ccccc2S(=O)(=O)C(C)C)n1` [ASP-3026], the figures for the Cmax in [1] and in data set [13] were 8990 ng/g and 2270 ng/g, respectively. In addition, in data set [2], the Tmax worked out at 4 h. Also, in the data set with NCI-H2228 [3], the inhibition in vivo at 3 mg/kg is > 100%. In addition, the “Ratio IC50” value in data set [4] came to 3.9; in data set [10] it was 3.2. In addition, the IC50 is > 100 nM in [5]; > 1000 nM in [8]; 32 nM on EML4-ALK; 8.9 nM in [12]; > 1000 nM in data set [15]; > 1000 nM in [18]. For the same molecule, the Activity with NCI-H2228 [6] is 78%; in data set [7], “Non-Toxic”; with NCI-H2228 [9], 45%; in data set [17], 88%. Further, in data set [11], the Kp at 264 h was > 100. The molecule also returned an AUC in data set [14] of 13600 ng·h/g. Also, the Kp at 120 h came out at 18 in [16] and 22 in the data set “in vivo”. Besides, the MST with NCI-H2228-Luc was >90 days. Moreover, the outcome in the data set on NCI-H2228 [19] was Active.

Values taken from ChEMBL document CHEMBL5661983, “The selective anaplastic lymphoma receptor tyrosine kinase inhibitor ASP3026 induces tumor regression and prolongs survival in non-small cell lung cancer model mice” (Mol Cancer Ther, 2014).
